From patent US11130780B2, “Inhibitors of growth factor activation enzymes” (Washington University, priority 2015, dated 2021) come the findings set out here.

Read-outs that look alike come from different tables or passages of the source. Positions of bridges follow the written chain, without caps; N, C: chain ends. Residues, ends and D or L forms follow the SMILES beside them. *: point of attachment. X2 = N=C(N)NCCC[C@H](N*)C(=O)c1nccs1

What all share (format): biochemical
Experiment [1] deals with T1, HGFA (Homo sapiens, UniProt Q04756).
T1 construct: His6 tag (N); seven amino acid spacer and seven amino acid TEV cleavage site (N); Honey Bee melittin signal peptide (N); made in house; host or cells: High 5 insect cells (baculovirus; virus raised in Sf9)
T1 sequence (Q04756 373-655): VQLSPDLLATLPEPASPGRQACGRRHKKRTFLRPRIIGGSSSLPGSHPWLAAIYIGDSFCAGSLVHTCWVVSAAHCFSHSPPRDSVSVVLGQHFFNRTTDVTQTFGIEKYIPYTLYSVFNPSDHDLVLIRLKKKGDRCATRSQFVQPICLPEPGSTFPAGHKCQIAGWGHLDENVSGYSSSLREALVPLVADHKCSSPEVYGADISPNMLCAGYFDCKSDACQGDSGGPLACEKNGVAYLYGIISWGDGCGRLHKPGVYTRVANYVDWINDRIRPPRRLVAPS
In words: Fluorescent kinetic enzyme inhibitor assay of HGFA. The conditions noted are these: read-out: HGFA Ki. The text has this: Using primers identified as SEQ ID NO 1, SEQ ID NO 2, and standard PCR protocols, the nucleotide sequence encoding amino acids 373-655 of HGFA was synthesized. This PCR product was cloned into the SfoI-HindIII sites of a modified pFastBac HT baculovirus expression vector (Addgene, Cambridge, Mass.). This vector contains a six amino His tag followed by a seven amino spacer and a seven amino acid TEV cleavage site placed immediately downstream of the Honey Bee melittin signal peptide. Using a modified Bac to Bac Expression System (Life Technologies, Carlsbad, Calif.), recombinant HGFA bacmids were obtained by transforming DH10Bac Escherichia coli cells. To obtain HGFA containing baculovirus, purified bacmids were transfected into Sf9 insect cells. After 5 days in culture at 27° C., media was harvested from transfected Sf9 cells. This media was used to prepare baculovirus infected insect cells (BIICs). These BIIICs were used to infect High 5 insect cells. Four days post infection, media was harvested and recombinant protein prepared as follows. Media was chilled to 4° C. and spun at 4000×g for 20 minutes (all subsequent steps were performed at 4° C. unless noted). Clarified media was passed first through a Whatman GF/B 1 um (#1821-047, GE Healthcare Life Sciences, Piscataway, N.J.) and then a 0.22 um PES membrane (#99955, TPP Techno Plastic Products AG, Trasadingen, Switzerland) and then concentrated using a Pall Centramate tangential flow system and Centramate T-series Cassette (#OS010T12, Pall Corporation, Port Washington, N.Y.). Concentrated media was then buffer exchanged in two steps, five volumes of 50 mM Na-phosphate, 500 mM NaCl, pH 6.2, followed by five volumes of 50 mM Na-phosphate, 500 mM NaCl, pH 7.5. The concentrated and buffered exchanged insect cell media was again filtered as above and made 25 mM imidazole (#1202, Sigma-Aldrich, St. Louis, Mo.) and was mixed with nickel agarose beads (#H-321-25, Gold Biotechnology, Inc., St. Louis Mo.). After mixing this slurry for 12 hours, nickel agarose beads were allowed to settle by gravity and then loaded into a column. Beads were washed with buffer (25 mM Na-phosphate, 500 mM NaCl, 25 mM imidazole, pH 8) and the bound protein eluted using (25 mM Na-phosphate, 500 mM NaCl, 250 mM imidazole, pH 8). Using a Amicon Ultra-4 Centrifugal filters (#UFC801008, Merck Millipore, Ltd., Tullagreen, Ireland), peak protein fractions were concentrated and run over a Superdex-200 10/300 GL column (GE Healthcare Life Sciences, Piscataway, N.J.) in 10 mM Tris, 200 mM NaCl, 0.2 mM EDTA, pH 8. HGFA containing fractions were pooled, concentrated, made 50% glycerol, and stored at minus 20° C. Protein was quantitated using a modified Lowry protein assay (#500-0006, Bio-Rad Laboratories, Hercules, Calif.).
Inhibitors (11-pt serial dilutions, 0-20 μM final concentration in reaction) were serially diluted in DMSO (2% DMSO final concentration) and then mixed with either recombinant serine protease domain of HGFA [Z. Han, P. K. Harris, D. E. Jones, R. Chugani, T. Kim, M. Agarwal, W. Shen, S. A. Wildman, J. W. Janetka, Acs Med Chem Lett 2014, 5, 1219-1224], matriptase (Charles Craik, UCSF) or hepsin* (#4776-SE-010, R&D Systems, Minneapolis, Minn.) in black 384 well plates (Corning #3575. Corning, N.Y.). […] The final substrate concentrations for all assays were at the Km for the respective enzymes. Changes in fluorescence (excitation at 380 nm and emission at 460 nm) were measured at room temperature over time in a Biotek Synergy 2 plate reader (Winnoski, Vt.). Using GraphPad Prism version 6.04 software program, (GraphPad Software, San Diego, Calif., www.graphpad.com), a four parameter curve fit was used to determine the inhibitor IC50s from a plot of the mean reaction velocity versus the inhibitor concentration. The IC50 values represent the average of three separate experimental determinations.

The target in a further experiment is T2, hepsin (Homo sapiens, UniProt P05981).
T2 construct: purchased R&D Systems 4776-SE-010
In words: P4-P2 substrate specificity using HyCoSuL, hepsin. More on the design: concentration or dose not given beside the values. As to conditions: HyCoSuL substrate library. The protocol:
(§1) Each of the P4, P3, and P2 sublibraries were screened at the 100 μM concentration with hepsin either HGFA in a 100 μL final volume per well (99 μL of protease in buffer+1 μL of 10 mM substrates mixture). The total time of the assay was 30 minutes, however only linear portions of the progress curve (5-15 minutes) were used for velocity (RFU/s) calculations. Each sublibrary screening was repeated at least 3-times and the average value calculated from each measurement was used to create the substrate specificity matrix—the best recognized amino acid in each position was set to 100%, and other amino acids were adjusted accordingly.
Recombinant human hepsin (10 μg in 20 uL, 4776-SE-010, R&D Systems) was added to the 100 μL of activation buffer (0.1 M Tris, 0.15 M NaCl, 0.01 M CaCl2, 0.05% TRITON-X, pH=8.0) and incubated at 37° C. for 24 hours (hepsin concentration in activation buffer 2 μM). Once activated hepsin was diluted in assay buffer (0.05 M Tris, pH=9.0) to the final concentration of 4 nM and incubated at 37° C. for 15 minutes before added to a substrate.

Experiment [2] has as its target T3, HGFA (Homo sapiens, UniProt Q04756).
T3 sequence (Q04756 408-655 limits assumed): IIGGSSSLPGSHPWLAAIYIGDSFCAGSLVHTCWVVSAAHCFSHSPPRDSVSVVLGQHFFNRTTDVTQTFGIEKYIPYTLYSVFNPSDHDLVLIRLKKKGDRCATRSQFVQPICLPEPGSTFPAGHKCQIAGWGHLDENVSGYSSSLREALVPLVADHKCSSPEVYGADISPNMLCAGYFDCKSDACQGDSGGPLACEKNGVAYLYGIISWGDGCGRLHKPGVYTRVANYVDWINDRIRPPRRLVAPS
T3 sequence (Q04756 373-407 partner limits assumed): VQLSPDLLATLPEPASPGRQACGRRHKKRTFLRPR
In words: P4-P2 substrate specificity using HyCoSuL, HGFA. More on the design: P3 Position % Activity HGFA / P2 Position % Activity HGFA: concentration or dose not given beside the values; P4 Position % Activity HGFA: tested at 100 µM. As to conditions: HyCoSuL substrate library. The protocol:
as §1
HFGA enzyme was diluted in the assay buffer (0.15 M NaCl, 0.025 M Tris, 0.005 M CaCl2, pH=8.0) to the final concentration of 10-20 nM (depending of sublibrary) and incubated at 25° C. for 30 minutes before added to a substrate.

[3] abbreviates: amino acid fixed at P2 position.
Setting [4] is: amino acid fixed at P3 position.
Setting [5] is: amino acid fixed at P4 position.

T2 sequence (P05981 163-417 limits assumed): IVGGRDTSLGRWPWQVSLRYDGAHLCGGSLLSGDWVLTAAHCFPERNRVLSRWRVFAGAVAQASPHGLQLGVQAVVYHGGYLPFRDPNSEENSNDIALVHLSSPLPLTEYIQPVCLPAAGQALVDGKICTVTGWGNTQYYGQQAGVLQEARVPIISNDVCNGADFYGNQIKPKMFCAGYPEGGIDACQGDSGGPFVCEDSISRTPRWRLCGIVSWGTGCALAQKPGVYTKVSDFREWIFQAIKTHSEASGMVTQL
T2 sequence (P05981 45-162 partner limits assumed): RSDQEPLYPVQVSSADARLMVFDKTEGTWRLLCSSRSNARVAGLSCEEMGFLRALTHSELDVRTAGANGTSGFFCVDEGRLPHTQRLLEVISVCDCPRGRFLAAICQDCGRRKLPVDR

One may read the Ki as the dissociation constant of the complex between target and ligand, obtained from inhibition or displacement. `N=C(N)NCCC[C@H](NC(=O)[C@@H]1CC(=O)NCCCC[C@H](N)C(=O)N[C@@H](CCC(N)=O)C(=O)N1)C(=O)N[C@@H](CCCNC(=N)N)C(=O)c1nccs1` [Compound 7074, (2S,5S,13S)-13-amino-2-(3-amino-3-oxopropyl)-N—((S)-5-guanidino-1-(((S)-5-guanidino-1-oxo-1-(thiazol-2-yl)pentan-2-yl)amino)-1-oxopentan-2-yl)-3,7,14-trioxo-1,4,8-triazacyclotetradecane-5-carboxamide] (H-KQDR-X2; lactam 1-3): the Ki on HGFA [1] (Table 7.1, first HGFA column) is 5.94 µM; on HGFA [1] (Table 7.1, second column headed HGFA), 0.00155 µM.

Regarding `N=C(N)NCCC[C@H](NC(=O)[C@H](CO)NC(=O)OCC1c2ccccc2-c2ccccc21)C(=O)c1nc2ccccc2s1` [Compound 7187-16, Fmoc-SR-kbt], the Ki on HGFA [1] (Table 6.1, Fluorogenic Assay) is over 20 µM.

For `N=C(N)NCCC[C@H](NC(=O)[C@H](CC(=O)O)NC(=O)OCC1c2ccccc2-c2ccccc21)C(=O)c1nc2ccccc2s1` [Compound 7185-4, Fmoc-DR-kbt], the Ki at HGFA [1] (Table 6.1, Fluorogenic Assay) is over 20 µM.

For the compound `N=C(N)NCCC[C@H](NC(=O)[C@H](Cc1ccccc1)NC(=O)[C@H](N)Cc1c[nH]c2ccccc12)C(=O)c1nc2ccccc2s1` [Compound 1-18A1, H-dWFR-kbt], the Ki at HGFA [1] (Table 6.1, Fluorogenic Assay) is 2.25 µM.

Regarding `C[C@@H](O)[C@H](NC(=O)OCC1c2ccccc2-c2ccccc21)C(=O)N[C@@H](CCCNC(=N)N)C(=O)c1nc2ccccc2s1` [Compound 7188-17, Fmoc-TR-kbt], on HGFA [1] (Table 6.1, Fluorogenic Assay), the Ki is over 20 µM.

In the case of `CC(C)C[C@H](NC(=O)[C@H](N)Cc1c[nH]c2ccccc12)C(=O)N[C@@H](CCCNC(=N)N)C(=O)c1nc2ccc(C(=O)O)cc2s1` [Compound 1-57A1, H-dWLR-kbt-COOH], the Ki on HGFA [1] (Table 6.1, Fluorogenic Assay) worked out at 0.346 µM.

For `N=C(N)NCCC[C@H](NC(=O)[C@H](Cc1cnc[nH]1)NC(=O)OCC1c2ccccc2-c2ccccc21)C(=O)c1nc2ccccc2s1` [Compound 7185-9, Fmoc-HR-kbt], the Ki at HGFA [1] (Table 6.1, Fluorogenic Assay) turned out to be 6.36 µM.

With `N=C(N)NCCC[C@H](NC(=O)[C@@H]1CCCN1C(=O)OCC1c2ccccc2-c2ccccc21)C(=O)c1nc2ccccc2s1` [Compound 7187-15, Fmoc-PR-kbt], on HGFA [1] (Table 6.1, Fluorogenic Assay), the Ki was over 20 µM.

As to `N=C(N)NCCC[C@H](NC(=O)[C@H](CC(N)=O)NC(=O)OCC1c2ccccc2-c2ccccc21)C(=O)c1nc2ccccc2s1` [Compound 7185-3, Fmoc-NR-kbt], the Ki at HGFA [1] (Table 6.1, Fluorogenic Assay) was over 20 µM.

Regarding L-Dab, at hepsin (setting [3]), the “P2 Position % Activity Hepsin” value turned out to be 13.49%. At hepsin (setting [4]), the “P3 Position % Activity Hepsin” value stood at 48.55%. Besides, the “P4 Position % Activity Hepsin” value on hepsin (setting [5]) is 47.53%. For the same compound, the “P2 Position % Activity HGFA” value at HGFA [2] (setting [3]) turned out to be 0.50%. Further, the “P3 Position % Activity HGFA” value on HGFA [2] (setting [4]) was 29.40%. For the same compound, the “P4 Position % Activity HGFA” value at HGFA [2] (setting [5]) amounted to 16.76%.

For `CC(C)C[C@H](NC(=O)[C@H](N)Cc1c[nH]c2ccccc12)C(=O)N[C@@H](CCCNC(=N)N)C(=O)c1nc2ccccc2s1` [Compound 1-15A1, H-dWLR-kbt], the inhibitory constant (Ki) on HGFA [1] (Table 6.1, Fluorogenic Assay) came to 0.128 µM.

Regarding `N=C(N)NCCC[C@H](NC(=O)[C@H](CCCCN)NC(=O)OCC1c2ccccc2-c2ccccc21)C(=O)c1nc2ccccc2s1` [Compound 7185-12, Fmoc-KR-kbt], the Ki on HGFA [1] (Table 6.1, Fluorogenic Assay) is over 20 µM.

As to `CC[C@H](C)[C@H](NC(=O)OCC1c2ccccc2-c2ccccc21)C(=O)N[C@@H](CCCNC(=N)N)C(=O)c1nc2ccccc2s1` [Compound 7185-10, Fmoc-IR-kbt], the inhibitory constant (Ki) on HGFA [1] (Table 6.1, Fluorogenic Assay) turned out to be 6.47 µM.

As for `N=C(N)NCCC[C@H](NC(=O)[C@H](Cc1ccccc1)NC(=O)[C@@H](N)Cc1c[nH]c2ccccc12)C(=O)c1nc2ccccc2s1` [Compound 1-13A1, H-WFR-kbt], at HGFA [1] (Table 6.1, Fluorogenic Assay), the Ki is 5.68 µM.

For the compound `CC(C)C[C@H](NC(=O)[C@@H](N)Cc1c[nH]c2ccccc12)C(=O)N[C@@H](CCCNC(=N)N)C(=O)c1nc2ccc(C(=O)O)cc2s1` [Compound 1-56A1, H-WLR-kbt-COOH], the Ki on HGFA [1] (Table 6.1, Fluorogenic Assay) was found to be 1.38 µM.

For `N=C(N)NCCC[C@H](NC(=O)[C@H](CCC(=O)O)NC(=O)OCC1c2ccccc2-c2ccccc21)C(=O)c1nc2ccccc2s1` [Compound 7185-7, Fmoc-ER-kbt], on HGFA [1] (Table 6.1, Fluorogenic Assay), the Ki was over 20 µM.

`CC(C)C[C@H](NC(=O)[C@H](Cc1c[nH]c2ccccc12)NC(=O)[C@@H](N)Cc1cncn1COCc1ccccc1)C(=O)N[C@@H](CCCNC(=N)N)C(=O)c1nc2ccccc2s1` [Compound 1-54A1, H-His(Bom)WLR-kbt]: the Ki on HGFA [1] (Table 6.1, Fluorogenic Assay) was found to be 3.71 µM.

`CC(C)C[C@H](NC(=O)[C@H](CCCNC(=N)N)NC(=O)[C@H](CCCCN)NC(=O)CCCCC[N+]1=C(/C=C/C=C/C=C2/N(C)c3ccc4ccccc4c3C2(C)C)C(C)(C)c2c1ccc1ccccc21)C(=O)N[C@@H](CCCNC(=N)N)C(=O)CCl` [Compound 1179, Cy5.5-KRLR(SEQ ID NO: 8)-cmk]: the Ki on HGFA [1] (Table 6.1, Fluorogenic Assay) amounted to 0.0341 µM.

Turning to `CC(C)C[C@H](NC(=O)[C@H](CCCNC(=N)N)NC(=O)[C@H](CCCCN)NC(=O)CCCCC[N+]1=C(/C=C/C=C/C=C2/N(C)c3ccc4ccccc4c3C2(C)C)C(C)(C)c2c1ccc1ccccc21)C(=O)N[C@@H](CCCNC(=N)N)C(=O)c1nc2ccccc2s1` [Compound 1178-2, Cy5.5-KRLR(SEQ ID NO: 8)-kbt], the inhibition constant Ki at HGFA [1] (Table 6.1, Fluorogenic Assay) worked out at 0.608 µM.
